Results reported in patent publication US12268727B2, “Bioactive polypeptides for improvements in plant protection, growth and productivity” (priority 2017, dated 2025).

How the values were obtained:
[1] = test system: citrus trees; assay type: in vivo, Citrus sinensis; Citrus×paradisi; settings: Valencia orange and Ruby Red grapefruit, 1× and 10× injection April 2017, measured June 2018
[2] = test system: Cercospora kikuchii; experiment: Cercospora leaf blight severity, field trials in Paraguay; assay type: in vivo; settings: two foliar applications from R1, 150 and 300 mL/Ha
Procedure: FOX is a commercially available foliar fungicide in South America with limited efficacy for preventative and curative treatment of Asian soybean rust caused by Phakopsora pachyrhizi and Cercospora leaf blight of soybean caused by Cercospora kikuchii applied as a foliar spray following the recommendations on the specimen label at a use rate of 5.48 fluid ounces per acre (Fl. oz/Ac) (400 mL/hectare). Beginning at the R1 stage of development, soybean plants received two foliar applications of the compositions described in Table 90 with an interval of 13-14 days between spray applications. […] Disease assessments for trials that were naturally infected were scored for the severity of infection (0-100% of foliage affected) were scored for 10 plants within each plot for both Asian soybean rust caused by Phakopsora pachyrhizi and Cercospora leaf blight of soybean caused by Cercospora kikuchii at the R4-R5 stage of soy development (4-15 days after second foliar application) with guidance from Godoy et al (1997; Journal of plant diseases and protection 104:336-345). Percent phytotoxicity (0-100% of foliage affected) was also scored at the R4-R5 stage of soy development. […] Standard deviation for each treatment between the three sites was calculated. […]

[3] = test system: Cercospora; experiment: Cercospora leaf blight of soybean, symptom rating in US Midwest fields; assay type: in vivo, Cercospora kikuchii; settings: for early symptom development (leaf area affected): 4 weeks, V3 foliar; for symptom ranking: 8 weeks; for Percent of Disease Area covering plant, 4 weeks Post Application / Disease Area, 8 weeks Post Application: foliar at V3; for Percent of Disease Area covering plant, 4 weeks Post Application: control 30%; for Disease Area, 8 weeks Post Application: control 50%
[4] = test system: squash; experiment: Foliar application to squash, yield; assay type: in vivo; settings: Crookneck squash; for change in fruit weight vs surfactant only control / increase in weight of harvested squash fruit per plant: Bt.4Q7Flg22 2.0 Fl. oz/Ac, Gm.RHPP 3.2 Fl. oz/Ac
Text: Formulation 2 (F2) consists of the D RI Bt.4Q7 Flg22 applied with 0.01% (wv) non-ionic surfactant. […] Yield comparisons were made between the plants treated with the foliar Bt.4Q7Flg22 F1 and F2 spray applications compared to the control (water) or non-treated squash plants. Squash plants were cultivated in sandy loam soil as follows. 2.5 cm holes were cut in 2.5 ft. (0.76 m) wide plastic covered mounds, two rows per mound, holes spaced 1.5 ft (0.46 m) apart within each row. Rows were staggered within the mound. Mounds were spaced 4 ft (1.2 m) apart. Three squash seeds were planted per hole and thinned to a single plant per hole 14 days after planting. Drip irrigation tubing was laid in the center of each mound, and plants were watered as necessary.
Squash plants were grown from seed in raised beds until bloom, and foliar treated in the same Florida (FL) location using two replicated trials or two separate harvests. Yield for the foliar Bt.4Q7Flg22 applied F1 and F2 treated plants is reported as the number of squash per plant, the weight (grams) per squash and the total squash yield (lbs/Ac) and represented as a percentage change as compared to non-treated control plants (Table 31).
Yield comparisons were made between the plants treated with the polypeptides compared to surfactant only control plants, with three replicates per treatment. […] Replicates with average yield per plant 50% above or 50% below the median yield for the trial were excluded as outliers.
Squash plants were cultivated in sandy loam soil as follows. 2.5 cm holes were cut in 0.76 meters wide plastic covered mounds, two rows per mound, holes spaced 0.46 meters apart within each row. Rows were staggered within the mound. Mounds were spaced 1.2 meters apart. Three squash seeds were planted per hole and thinned to a single plant per hole 14 days after planting. Drip irrigation tubing was laid in the center of each mound, and plants were watered as necessary.

[5] = test system: reactive oxygen species (ROS) production in tomato leaf tissue; experiment: ROS activity assay in tomato leaf tissue; assay type: cell-based
Procedure: Tomato leaves were excised from 4-week-old plants using a cork borer to generate 4 mm disks. Each disc was cut in half using the edge of a razor blade, and then each disc half was floated on 150 μL of water in a 96-well plate to rest overnight. The next day, the water was removed from each well just prior to polypeptide treatment. The Flg polypeptides as described in Table 66 were added to water to bring them to a final concentration of 5 nM (Table 67) and 100 nM (Table 68) in solution with luminol and HRP before adding to each treatment well. To maintain activity, the polypeptides were stored in small aliquots to avoid multiple freezing and thawing. All dilutions to obtain working concentrations were done in ultrapure water. Polypeptide solutions were stored at −20° C. for short term usage or −80° C. for long term storage. RLU values and relative ROS activity (Tables 67, 68) is reported as the average of 4 measurements.

[6] = test system: reactive oxygen species (ROS) production in soybean leaf tissue; experiment: ROS activity assay in soybean leaf tissue (luminol/horseradish peroxidase, RLU); assay type: cell-based; settings: for Fold increase over negative control: vs mock (water)
[7] = test system: Cercospora brassicicola; experiment: White leaf spot on kale, disease score and plant weight; assay type: in vivo
Procedure: The infected kale plants had received no previous foliar treatments for fungal disease prevention. […] A single person scored all the plants within the trial area, and then evenly distributed the plants by disease score between the treatments in Table 64, with 6 replicated blocks of 6 plants per treatment (total=36 plants per treatment). […] Three weeks after foliar treatments, the plants were scored used the same disease severity rubric. The change in disease score was calculated for each plant, and the average change in disease score was determined per treatment. Plants were harvested four days after assessing disease severity, and yield was measured as plant weight (grams). Outlying values with weights that were either 50% below or 50% above the median weight for the trial were excluded from the dataset.

[8] = soybean leaf tissue, Bt.4Q7Flg22 52.2 nM without surfactant
[9] = soybean leaves, Bt.4Q7Flg22 100 nM, No PROXEL Preservative Added

Bt.4Q7Flg22: Flg22 polypeptide (22 amino acids) from flagellin of Bacillus thuringiensis strain 4Q7 (DRLSSGKRINSASDDAAGLAIA; listed as Bacillus thuringiensis)
fruit per limb and fruit size vs untreated control [1]: increased fruit per limb and increased fruit size | less Cercospora leaf area damage than untreated control [2]: 2.8-3.5% | early symptom development (leaf area affected) ([3]; 0.33 Fl. oz/Ac): 20% | early symptom development (leaf area affected) ([3]; 4.0 Fl. oz/Ac): approximately 5% | symptom ranking ([3]; 0.33 Fl. oz/Ac): comparable to the non-treated control plants | symptom ranking ([3]; 4.0 Fl. oz/Ac): considerably less apparent symptoms and damage | Percent of Disease Area covering plant, 4 weeks Post Application ([3]; 0.33 Fl. oz/Ac): 20% | Disease Area, 8 weeks Post Application ([3]; 0.33 Fl. oz/Ac): 50% | Percent of Disease Area covering plant, 4 weeks Post Application ([3]; 4.0 Fl. oz/Ac): 5% | Disease Area, 8 weeks Post Application ([3]; 4.0 Fl. oz/Ac): 35% | change in fruit weight vs surfactant only control [4]: 4.4% | increase in weight of harvested squash fruit per plant [4]: 31.7 grams | ROS response ([5]; 5 nM): very low ROS response | ROS response ([5]; 100 nM): high response | Average RLU value (5 nM Flg polypeptide) ([5]; tomato leaf discs, 5 nM, average of 4 measurements): 33118 RLU | Average RLU value with 100 nM Flg polypeptide ([5]; tomato leaf discs, 100 nM (each, in the combination)): 2,118,932 (−) RLU | fold-increase in ROS production over mock-treated control ([6]; 52.2 nM Bt.4Q7Flg22, NIS90:10 0.25% or 0.5% v/v, Silwet-L77 0.025% or 0.1% v/v): 6.8 × | fold increase in RLU over mock treatment ([6]; 100 nM Bt.4Q7Flg22, Proxel compatibility test): 17.0 × | Avg. Activity (%) Soybean (297 R4) 100 nM polypeptide ([6]; Table 33, RLU relative to native Bt.4Q7Flg22 = 100): 100% | Avg. Activity (%) Soybean (297 R4) 100 nM polypeptide ([6]; Table 35, single polypeptides and combinations, Bt.4Q7Flg22 = 100): 100% | relative ROS activity ([6]; soy leaf tissue, 10 nM): 0.04 × | Polypeptide Concentration (nM) for 5 × 10^4 total RLU production ([6]; soybean leaf discs, from best-fit regression, Table 72 data set): 31.4 nM | Average RLU values [6, 8]: 350503 RLU | Fold increase over negative control [6, 8]: (6.8X) | Average RLU values [6, 9]: 81887 RLU | Fold increase over negative control [6, 9]: (17.0X) | Average Change in Disease Score ([7]; improvement on the 1-5 scale, surfactant only control 0.6 point improvement): 1.1 point | average plant weight ([7]; infected kale, harvested about 3.5 weeks after foliar treatment): 15.1 g | Yield (Average plant weight in grams) ([7]; infected kale, Bt.4Q7Flg22 100 μM 12.0 Fl. oz/Ac, Liquid Copper Fungicide label rate 54.45 Fl oz/Ac): 15.1 grams | Yield Relative to control (%) ([7]; infected kale, surfactant only control 100%, Bt.4Q7Flg22 12.0 Fl. oz/Ac, copper fungicide 54.45 Fl oz/Ac): (103%) | average improvement in disease scoring over control (1-5 rubric) ([7]; three weeks after foliar treatment): 0.5 points

GGIRAAPTGNER (Glycine max) [RHPP, Root Hair Promoting Peptide from Glycine max]
less Cercospora leaf area damage than untreated control [2]: 3.3-4.5% | Average squash fruit weight (grams) per plant ([4]; foliar at first bloom, Bt.4Q7Flg22 16.7 μM 2 fl oz/Ac, Gm.RHPP 100 μM 3.2 fl oz/Ac, two harvests): 748.4 grams | Percentage Change in Fruit Weight Compared to Surfactant only control ([4]; foliar at first bloom, Bt.4Q7Flg22 2 fl oz/Ac, Gm.RHPP 3.2 fl oz/Ac): +4.4% | change in fruit weight vs surfactant only control [4]: 4.4% | increase in weight of harvested squash fruit per plant [4]: 31.7 grams
